Measured values: patent US10905118B2, “Triscationic amphiphile compounds, compositions, and methods for making same” (James Madison Innovations, Inc., priority 2014, dated 2021)

Tests used:
Bacillus cereus = assay: Minimum inhibitory concentration, B. cereus; assay type: cell-based; details: Mueller-Hinton Broth, 37° C., 72 h
Procedure: (§1) The MIC values of all compounds from both double-tailed series were determined for four Gram-positive (Staphylococcus aureus, Enterococcus faecalis, Streptococcus agalactiae, and Bacillus cereus) and two Gram-negative (Escherichia coli and Pseudomonas aeruginosa) strains, which are shown in Table 3.
(§2) The Gram-positive bacterial strains used tested were Staphylococcus aureus subsp. aureus ATCC® 29213™, Enterococcus faecalis ATCC® 29212™, Bacillus cereus, and Streptococcus agalactiae J48.^58 The Gram-negative bacterial strains used were Escherichia coli ATCC® 25922™ and Pseudomonas aeruginosa ATCC® 27853™. All strains were grown in 1× Mueller-Hinton Broth at 37° C. for 12-24 h. For the MIC and combination studies, bacterial suspensions were prepared by diluting overnight cultures to 5×10^6 CFU/mL in 2× Mueller-Hinton Broth, so that when amphiphile solutions are added the final broth strength is 1×.
(§3) The methods used to determine the MIC and MBC were performed as previously described and followed the standards set forth by the Clinical and Laboratory Standards Institute (See Ladow, J. E.; Warnock, D. C.; Hamill, K. M.; Simmons, K. L.; Davis, R. W.; Schwantes, C. R.; Flaherty, D. C.; Willcox, J. A. L.; Wilson-Henjum, K.; Caran, K. L.; Minbiole, K. P. C.; Seifert, K. Bicephalic amphiphile architecture affects antibacterial activity. Eur. J. Med. Chem. 2011, 46, 4219-4226 and P. A. Wayne Methods for dilution antimicrobial tests for bacteria that grow aerobically. 2009.). Briefly, compounds were serially diluted and 100 μL of each dilution were added to the wells of a 96-well flat-bottomed microtiter plate in triplicate. After adding 100 μL of the bacterial cell suspension, the plates were incubated at 37° C. for 72 h. […] The MIC was considered to be bactericidal if the MBC was the same concentration or one concentration higher in the dilution series as the MIC, per Motyl, M.; Dorso, K.; Barrett, J.; Giacobbe, R. Basic microbiological techniques used in antibacterial drug discovery. Curr. Protoc. Pharmacol. 2006, Chapter 13.

Enterococcus faecalis = assay: Minimum inhibitory concentration, E. faecalis; assay type: cell-based, Enterococcus faecalis ATCC 29212; details: Mueller-Hinton Broth, 37° C., 72 h
Procedure: as §1, §2, §3

Streptococcus agalactiae = assay: Minimum inhibitory concentration, S. agalactiae; assay type: cell-based, Streptococcus agalactiae J48; details: Mueller-Hinton Broth, 37° C., 72 h
Procedure: as §1, §2, §3

Staphylococcus aureus = assay: Minimum inhibitory concentration, S. aureus; assay type: cell-based, Staphylococcus aureus subsp. aureus ATCC 29213; details: Mueller-Hinton Broth, 37° C., 72 h
Procedure: as §1, §2, §3

Escherichia coli = assay: Minimum inhibitory concentration, E. coli; assay type: cell-based, Escherichia coli ATCC 25922; details: Mueller-Hinton Broth, 37° C., 72 h
Procedure: as §1, §2, §3

Pseudomonas aeruginosa = assay: Minimum inhibitory concentration, P. aeruginosa; assay type: cell-based, Pseudomonas aeruginosa ATCC 27853; details: Mueller-Hinton Broth, 37° C., 72 h
Procedure: as §1, §2, §3

[1] = Isothermal titration calorimetry: critical aggregation concentration and thermodynamics of aggregation; assay type: physicochemical; details: for −TΔSmic: Gibbs-Helmholtz equation; for −TΔSmic / ΔGmic: double-tailed series; for ΔGmic: approximated with RT ln(CAC/55.5); for CMC / ΔHmic: pure water, double-tailed M-P and M-1 series; for −TΔSagg term (sign, in words): Table 1
Procedure: Isothermal titration calorimetry (ITC) was used to determine the critical aggregation concentration (CAC) and the thermodynamic parameters at 37° C. associated with aggregate formation for each double-tailed amphiphile for the M-P and M-1 series, as shown in Table 1.
A Nano ITC was used to measure the heat change associated with the deaggregation of amphiphiles via power compensation. A concentrated aqueous solution of amphiphile (>>CAC) was titrated into a thermally controlled sample cell, initially containing pure water, in a series of discrete injections. Isothermal titration calorimetry was used to determine the critical aggregation concentration (CAC) and ΔHagg. Shown in FIG. 5 is the heat rate associated with each injection versus time for 9 (M-1,14,14). Shown in FIG. 6 is the integration of the heat per injection normalized by the number of moles of each injection versus the increasing concentration of amphiphile in the well. In FIG. 6, inset, CAC is determined by calculating the first derivative the heat curve.
During initial injections (Range I), measured heat changes are due to both the dilution of aggregates and deaggregation. This can be observed in the first 10 injections, where aggregates absorbed heat and disassociated into dissolved monomers. The heat change produced by each injection was approximately constant in this range. In Range II, injected aggregates don't fully dissociate, reducing the total absorbed heat for each subsequent injection. At concentrations well above the CAC (Range III), absorbed heat is attributed only to the dilution of aggregates and is approximately constant. […] CAC and thermodynamic data were not determined for the amphiphiles with the shortest tails [1 (M-P,8,8) and 6 (M-1,8,8)] because the heat evolved during injection was […] the threshold of the instrument.
The difference between the average heat of injections in Range I, representing the total heat due to the dilution of aggregates and deaggregation, and the average heat of injections in Range III, representing the heat due solely to the dilution of aggregates, gives the heat of deaggregation, ΔHdeagg. The ΔHdeagg for compound 9 (M-1,14,14) is 37 kJ/mol, corresponding to a heat of aggregate formation, ΔHagg, of −37 kJ/mol (ΔHagg=−ΔHdeagg).
The ΔGagg can be approximated for the aggregation of nonionic amphiphiles by the equation: ΔGagg=RT ln(CAC/55.5) (3)
where m is the concentration of counterions that associate with a aggregate and n is the number of monomers that associate to form an aggregate. […] BBA-Biomembranes. 2000, 1508, 69-85.)
The entropy of aggregation (ΔSagg) is dictated by a combination of entropic factors that favor or disfavor aggregate formation and can be approximated using the Gibbs-Helmholtz equation: ΔGagg=ΔHagg−TΔSagg (5)
CAC and ΔHagg were determined using a Nano-ITC (TA-Instruments). Prior to each experiment the sample cell was washed with dH2O (300 mL), ethanol (100 mL), dH2O (300 mL) and nanopure water (200 mL). Next, 950 μL of nanopure water was added to the sample cell. A concentrated aqueous solution (>>CAC) of amphiphile was prepared and equilibrated at 37° C. A 250 μL syringe was filled with the aqueous solution, and loaded into the Nano ITC. Multiple single injections in aliquots of 5 μL were injected into the sample cell with time intervals varying from 300 s to 1400 s. Samples were continuously stirred (300 rpm) throughout the titration. The Nano-Analyze program (TA-Instruments) was used to analyze the data. CAC and ΔHagg values reported are the average of two or more repeat experiments for each amphiphile.

Row | Structure (SMILES) | MIC B. cereus (G+) (Bacillus cereus) [µM] | MIC E. faecalis (G+) (Enterococcus faecalis) [µM] | MIC S. agalactiae (G+) (Streptococcus agalactiae) [µM] | MIC S. aureus (G+) (Staphylococcus aureus) [µM] | MIC E. coli (G−) (Escherichia coli) [µM] | MIC P. aeruginosa (G−) (Pseudomonas aeruginosa) [µM] | −TΔSmic ([1]; 37° C.) [kJ/mol] | ΔGmic ([1]; 37° C.) [kJ/mol] | CMC ([1]; ITC, 37° C.) [mM] | ΔHmic ([1]; ITC, 37° C.) [kJ/mol] | −TΔSagg term (sign, in words) [1] | ΔHagg ([1]; ITC, 37° C.) [kJ/mol] | ΔHdeagg (heat of deaggregation) ([1]; ITC, 37° C., Range I minus Range III) [kJ/mol]
1 | CCCCCCCC[N+](C)(C)Cc1cc(C[N+](C)(C)C)cc(C[N+](C)(C)CCCCCCCC)c1.[Br-].[Br-].[Br-] [Compound 6] | >250 | >250 | >250 | >250 | >250 | >250 |  |  |  |  |  |  | 
2 | CCCCCCCCCC[N+](C)(C)Cc1cc(C[n+]2ccccc2)cc(C[N+](C)(C)CCCCCCCCCC)c1.[Br-].[Br-].[Br-] [Compound 2] | 8 | 8 | 8 | 2 | 16 | 63 | 10 | -21 | 14 | -11 | negative |  | 
3 | CCCCCCCCCCCC[N+](C)(C)Cc1cc(C[N+](C)(C)C)cc(C[N+](C)(C)C)c1.[Br-].[Br-].[Br-] [Compound S3] | 63 | 250 | 125 | 63 | >250 | >250 |  |  |  |  |  |  | 
4 | CCCCCCCC[N+](C)(C)Cc1cc(C[n+]2ccccc2)cc(C[N+](C)(C)CCCCCCCC)c1.[Br-].[Br-].[Br-] [Compound 1] | >250 | >250 | >250 | >250 | >250 | >250 |  |  |  |  |  |  | 
5 | CCCCCCCCCC[N+](C)(C)Cc1cc(C[N+](C)(C)C)cc(C[N+](C)(C)CCCCCCCCCC)c1.[Br-].[Br-].[Br-] [Compound 7] | 8 | 8 | 4 | 16 | 125 | >250 | 6.6 | -22 | 12 | -15 | negative |  | 
6 | CCCCCCCCCCCC[N+](C)(C)Cc1cc(C[n+]2ccccc2)cc(C[N+](C)(C)CCCCCCCCCCCC)c1.[Br-].[Br-].[Br-] [Compound 3] | 2 | 2 | 1 | 2 | 4 | 8 | 3.1 | -26 | 2.4 | -23 | negative |  | 
7 | CCCCCCCC[N+](C)(C)Cc1cc(C[N+](C)(C)C)cc(C[N+](C)(C)C)c1.[Br-].[Br-].[Br-] [Compound S1] | >250 | >250 | >250 | >250 | >250 | >250 |  |  |  |  |  |  | 
8 | CCCCCCCCCC[N+](C)(C)Cc1cc(C[N+](C)(C)C)cc(C[N+](C)(C)C)c1.[Br-].[Br-].[Br-] [Compound S2] | 125 | 250 | 125 | >250 | >250 | >250 |  |  |  |  |  |  | 
9 | CCCCCCCCCCCCCC[N+](C)(C)Cc1cc(C[N+](C)(C)C)cc(C[N+](C)(C)CCCCCCCCCCCCCC)c1.[Br-].[Br-].[Br-] [Compound 9] | 4 | 4 | 2 to 4 | 4 to 8 | 8 | 125 | -8.0 | -29 | 0.61 | -37 | positive | -37 | 37
10 | CCCCCCCCCCCCCCCC[N+](C)(C)Cc1cc(C[n+]2ccccc2)cc(C[N+](C)(C)CCCCCCCCCCCCCCCC)c1.[Br-].[Br-].[Br-] [Compound 5] | 32 | 32 | 4 | 32 | 125 | >250 | -9.2 | -33 | 0.18 | -42 | positive |  | 
11 | CCCCCCCCCCCC[N+](C)(C)Cc1cc(C[N+](C)(C)C)cc(C[N+](C)(C)CCCCCCCCCCCC)c1.[Br-].[Br-].[Br-] [Compound 8] | 2 | 2 | 2 | 2 | 4 to 8 | 16 | 0.082 | -26 | 2.5 | -26 | negative |  | 
12 | CCCCCCCCCCCCCCCC[N+](C)(C)Cc1cc(C[N+](C)(C)C)cc(C[N+](C)(C)CCCCCCCCCCCCCCCC)c1.[Br-].[Br-].[Br-] [Compound 10] | 16 | 32 | 8 | 16 | 63 | >250 | -22 | -33 | 0.16 | -55 | positive |  | 
